Data from article PMC12073402, “A Selective MAP3K1 Inhibitor Facilitates Discovery of NPM1 as a Member of the Network” (Molecules, 2025).
Like-named read-outs stand apart in the source and are kept apart here.

Columns and labels:
[1] = test system: TNFα-induced IKKβ-mediated NFκB activation; set-up: method as in PMID 34098465; conditions: analog 84 over the earlier IKKβ inhibitor; cited from earlier work
[2] = set-up: method as in PMID 34098465; conditions: cited from earlier work
[3] = test system: pancreatic cancer mouse model; set-up: method as in PMID 34098465; conditions: by itself and in combination with gemcitabine; cited from earlier work
[4] = Metabolic stability in human liver microsomes (LC-MS/MS); format: in vitro ADME; conditions: Species Human
Source text: An approach to address this issue of bioavailability is to improve metabolic stability. The para-position of the phenyl ring in acetanilide moieties is susceptible to oxidation. […] To test this, we altered the substitution pattern on the phenyl ring by moving the F atom from the ortho in 84 to the para position (Figure 1A). The regioisomer 51-106, resulting from the above change, was synthesized by coupling 3-(1-methyl-1H-pyrazol-4-yl)quinoxalin-6-amine (1) with freshly prepared 1-fluoro-4-isocyanato-2-(trifluoromethyl)benzene in dichloromethane (Scheme 1). To determine the metabolic stability of 51-106, we incubated 51-106 and analog 84 with human (pooled male and female) liver microsomes and monitored their stability using liquid chromatography–tandem mass spectrometry.
The in vitro metabolic stability of 51-106 was determined using human liver […] (XenoTech, LLC; Kansas City, KS, USA), following previously reported methods. […] Sample analysis was performed by liquid chromatography–tandem mass spectrometry (SCIEX QTRAP 4000 LC-MS/MS System, SCIEX, Framingham, MA, USA).

[5] = test system: NPM1 T199 phosphorylation; test: Western blot of NPM1 T199 phosphorylation in PANC-1 cells; format: cell-based; conditions: 2 h
Source text: We further investigated changes in NPM1 phosphorylation in our dataset. Of the NPM1 phosphorylation sites quantified, four sites had significant dose-dependent decreases upon 51-106 treatment: S137, T199, S222, and S227. Only one of these phosphorylation sites, T199, has a commercially available antibody. Importantly, T199 phosphorylation plays an essential role in NPM1 function, as it is required for localization of NPM1 to sites of DNA double-stranded breaks, where it colocalizes with other DNA repair proteins such as γH2AX and RAD51 [38].
Cells were washed with cold 1× PBS and lysed in Radioimmunoprecipitation assay (RIPA) buffer (Cat# 89901; Thermo Fisher Scientific), sodium orthovanadate (Na3VO4) (Cat# 567540-5GM; Sigma-Aldrich; St. Louis, MO, USA), sodium fluoride (NaF) (Cat# 201154-5G, >99% purity; Sigma-Aldrich), β-glycerophosphate (Cat# G9422-10G; Sigma-Aldrich), and 1 mM phenylmethylsulfonyl fluoride (Cat# 10837091001; Sigma Aldrich). The samples were incubated on ice for 30 min, vortexed at 10 min intervals, and centrifuged at 14,000× g for 10 min at 4 °C. The supernatant was collected, and protein was quantified using the BCA Protein Assay kit (Cat# 23225; Thermo Fisher Scientific). […]

| Structure (SMILES) | improved potency [1] | AUC0-∞ ([2]; 20 mg/kg, Oral) [ng·h/mL] | AUClast ([2]; 20 mg/kg, Oral) [ng·h/mL] | Cmax ([2]; 20 mg/kg, Oral) [ng/mL] | MRT 0-∞ ([2]; 20 mg/kg, Oral) [h] | T1/2 ([2]; 20 mg/kg, Oral) [h] | Tmax ([2]; 20 mg/kg, Oral) [h] | Bioavailability (%F) ([2]; 20 mg/kg, Oral, listed as 84) [%] | Bioavailability (%F) ([2]; 20 mg/kg, Oral, listed as analog 84) [%] | improved bioavailability ([2]; analog 84 over the earlier IKKβ inhibitor) | tumor growth [3] | T1/2 (half-life) in human liver microsomes [4] | Hepatic Extraction Ratio (E) ([4]; human liver microsomes) | half-life ([4]; both sexes, human, liver microsomes, read-out: T1/2 (half-life) in human liver microsomes (converted)) [h] | NPM1 T199 phosphorylation (Western blot) [5] |
| --- | --- | --- | --- | --- | --- | --- | --- | --- | --- | --- | --- | --- | --- | --- | --- |
| Cn1cc(-c2cnc3ccc(NC(=O)Nc4cccc(C(F)(F)F)c4F)cc3n2)cn1 [Analog 84] | ~ 4 fold | 8008 ± 3696 | 7986 ± 3675 | 700 ± 320 | 6.3 ± 0.5 | 2.5 ± 0.3 | 6.0 | 17.6 | ~17 | ~ 5.7 fold | inhibited tumor growth | ~ 13 h | 0.09 | 13.6 | – |
| CN[C@@H]1C[C@H]2O[C@@](C)([C@@H]1OC)n1c3ccccc3c3c4c(c5c6ccccc6n2c5c31)C(=O)NC4 [Staurosporine, reference compound] | – | – | – | – | – | – | – | – | – | – | – | – | – | – | Decreased phosphorylation in NPM1 T199 |
